This note sets out measurements from EP4782453A1 (Beyang Therapeutics Co., Ltd., priority 2023, dated 2025).

SMILES strings stand for the structures.

One test deals with T1, Menin-MLL (Homo sapiens, UniProt O00255).
T1 construct: His-Menin (M1-L615 end); purchased BIORTUS BP9210
T1 sequence (O00255 1-615 isoform O00255-1): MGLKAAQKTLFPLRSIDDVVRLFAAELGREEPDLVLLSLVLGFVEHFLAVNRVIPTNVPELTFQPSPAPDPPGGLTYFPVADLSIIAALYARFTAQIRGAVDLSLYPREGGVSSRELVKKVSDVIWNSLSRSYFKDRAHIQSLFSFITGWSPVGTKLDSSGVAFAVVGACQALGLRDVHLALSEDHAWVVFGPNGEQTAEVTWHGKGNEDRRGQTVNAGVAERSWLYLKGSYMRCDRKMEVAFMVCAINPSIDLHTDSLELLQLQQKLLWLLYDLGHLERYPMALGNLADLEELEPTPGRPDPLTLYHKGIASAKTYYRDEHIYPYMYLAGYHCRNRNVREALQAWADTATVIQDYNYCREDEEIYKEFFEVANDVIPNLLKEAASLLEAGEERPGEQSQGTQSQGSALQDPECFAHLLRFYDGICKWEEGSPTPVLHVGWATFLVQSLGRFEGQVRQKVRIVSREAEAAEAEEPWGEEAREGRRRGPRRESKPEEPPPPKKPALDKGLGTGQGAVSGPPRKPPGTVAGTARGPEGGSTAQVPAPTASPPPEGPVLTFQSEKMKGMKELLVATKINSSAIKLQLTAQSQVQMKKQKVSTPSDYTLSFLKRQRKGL
In words: Inhibitory activity against Menin-MLL binding (fluorescence polarization). The conditions noted are these: Menin-MLL IC50, fluorescence polarization; 150 nM His-Menin, 15 nM FITC-MLL; 25°C for 60 min. The procedure, abridged: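 His-Menin (M1-L615, 150 nM) preincubated with compound 15 min at 25 °C in HEPES pH 7.5, 50 mM NaCl, 1 mM DTT, 0.01% BSA, then 15 nM FITC-MLL4-43 peptide added for 60 min at 25 °C. Fluorescence polarization read; IC50 from 4-parameter logistic fit, duplicates.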
(In general: Fluorescence polarisation rises when a labelled molecule tumbles more slowly, as on binding a larger partner.)
For orientation: IC50 means the concentration that inhibits the measured activity by half. As for `CCN(C(=O)c1cc(F)ccc1-c1cc(C2CCN(C[C@H]3CC[C@H](NS(=O)(=O)CC)CC3)C2)cc2cncn12)C(C)C` (mixture of isomers) [Example 25, N-ethyl-5-fluoro-N-isopropyl-2-[7-(1-{[(1r,4r)-4-ethanesulfonamidocyclohexyl]methyl}pyrrolidin-3-yl)imidazo[1,5-a]pyridin-5-yl]benzamide], the IC50 was 19 nM.

Still in this test, the particulars now being: fluorescence polarization; 150 nM His-Menin, 15 nM FITC-MLL; 25°C for 60 min; read-out: Menin-MLL IC50.
For the compound `CCN(C(=O)c1cc(F)ccc1-c1cc(C2CN(C(C)C3CCN(C(C)=O)CC3)C2)cn2c(C)ncc12)C(C)C` (stereo not shown) [Example 281], the IC50 turned out to be 7 nM.
Still for that read-out and setting: then `Cc1nc(F)c2c(-c3ccc(F)cc3C(=O)N3CCOC[C@H]3C)cc(C3CN([C@@H](CC[C@@H]4CNCCO4)C(C)C)C3)cn12` [Example 245-2, (3R)-4-[5-fluoro-2-(1-fluoro-3-methyl-6-{1-[(3S)-4-methyl-1-[(2R)-morpholin-2-yl]pentan-3-yl]azacyclobutan-3-yl}imidazo[1,5-a]pyridin-8yl)benzoyl]-3-methylmorpholine], with 58 nM.
On the same count and under the same terms, next, `CCN(C(=O)c1cc(F)ccc1-c1cc(C2CN([C@@H](C)C3CCN(C(C)=O)CC3)C2)cn2c(C)ncc12)C(C)C` [Example 281-1]: 9 nM; `CCNC(=O)N1CCC([C@@H](C)N2CC(c3cc(-c4ccc(F)cc4C(=O)N(CC)C(C)C)c4c(F)nc(C)n4c3)C2)CC1` [Example 282-1, N-ethyl-4-[(1R)-1-[3-(8-{2-[ethyl(isopropyl)aminoformyl]-4-fluorophenyl}-1-fluoro-3-methylimidazo[1,5-a]pyridin-6-yl)azacyclobutan-1-yl]ethyl]piperidin-1-formamide]: 9 nM.
For `CC(=O)N1CCN(CCC[C@H](C(C)C)N2CC(c3cc(-c4ccc(F)cc4C(=O)N4CCOC[C@H]4C)c4c(F)nc(C)n4c3)C2)C[C@H]1C` [Example 330, 1-{(2R)-4-[(4R)-4-[3-(1-fluoro-8-{4-fluoro-2-[(3R)-3-methylmorpholin-4-carbonyl]phenyl}-3-methylimidazo[1,5-a]pyridin-6-yl)azacyclobutan-1-yl]-5-methylhexyl]-2-methylpiperazin-1-yl}ethan-1-one], the half-maximal inhibitory concentration (IC50) was 16 nM.
Take `CCC(=O)N1CCC(C(C)N2CC(c3cc(-c4ccc(F)cc4C(=O)N4CCOC[C@H]4C)c4cnc(C)n4c3)C2)CC1` (stereo partly drawn) [Example 319, 1-(4-{1-[3-(8-{4-fluoro-2-[(3R)-3-methylmorpholin-4-carbonyl]phenyl}-3-methylimidazo[1,5-a]pyridin-6-yl)azacyclobutan-1-yl]ethyl}piperidin-1-yl)propan-1-one]: the IC50 is 19 nM.
On to `CC(=O)N1CCN(CCC[C@H](C(C)C)N2CC(c3cc(-c4ccc(F)cc4C(=O)N4CCOC[C@H]4C)c4c(F)nc(C)n4c3)C2)C2(CC2)C1` [Example 334], for which the IC50 was determined as 30 nM.
Take `CCN(C(=O)c1cc(F)ccc1-c1cc(C2CN([C@H](CCCN3CCN[C@H](CF)C3)C(C)C)C2)cn2c(C)ncc12)C(C)C` [Example 501]: the half-maximal inhibitory concentration (IC50) was found to be 1.6 nM.
Consider `CCN(C(=O)c1cc(F)ccc1-c1cc(C2CCN(CC3(O)CCC(NC(=O)OC(C)(C)C)CC3)C2)cn2c(C)ncc12)C(C)C` (stereo not shown) [Compound 50, N-(4-{[3-(8-{2-[ethyl(isopropyl)aminoformyl]-4-fluorophenyl}-3-methylimidazo[1,5-a]pyridin-6-yl)pyrrolidin-1-yl]methyl}-4-hydroxylcyclohexyl)tert-butyl carbamate], for which the IC50 was 14 nM.
For the compound `CCCC(=O)N1CCC(C(C)N2CC(c3cc(-c4ccc(F)cc4C(=O)N4CCOC[C@H]4C)c4cnc(C)n4c3)C2)CC1` (stereo partly shown) [Example 320], the IC50 was 12 nM.
For the compound `CCN(C(=O)c1cc(F)ccc1-c1cc(C2CCN(C[C@H]3CC[C@H](N4CCOC4=O)CC3)C2)cn2cncc12)C(C)C` (stereo partly shown) [Example 47], the IC50 worked out at 25 nM.
Regarding `CC(=O)N1C[C@H]2C[C@@H]1CN2CCC[C@H](C(C)C)N1CC(c2cc(-c3ccc(F)cc3C(=O)N3CCOC[C@H]3C)c3c(F)nc(C)n3c2)C1` [Example 332, 1-[(1R,4R)-5-[(4R)-4-[3-(1-fluoro-8-{4-fluoro-2-[(3R)-3-methylmorpholin-4-carbonyl]phenyl}-3-methylimidazo[1,5-a]pyridin-6-yl)azacyclobutan-1-yl]-5-methylhexyl]-2,5-diazabicyclo[2.2.1]heptan-2-yl]ethan-1-one], the IC50 was determined as 9.3 nM.
Turning to `CCN(C(=O)c1cc(F)ccc1-c1cc(C2CCN(C(=O)[C@H]3N[C@@H]4CC[C@H]3C4)C2)cn2cncc12)C(C)C` (stereo partly drawn) [Example 38, 2-(6-{1-[(1R,3S,4S)-2-azabicyclo[2.2.1]heptan-3-carbonyl]pyrrolidin-3-yl}imidazo[1,5-a]pyridin-8-yl)-N-ethyl-5-fluoro-N-(isopropyl)benzamide], the IC50 was found to be 128 nM.
For the compound `CCN(C(=O)c1cc(F)ccc1-c1cc(N2CCN(C(=O)[C@@H]3CCCN3)CC2)cn2c(C)nc(Cl)c12)C(C)C` [Example 114], the 50% inhibitory concentration (IC50) amounted to 19 nM.
As for `CCN(C(=O)c1cc(F)ccc1-c1cc(C2CN([C@H](C)C3CCN(C(C)=O)CC3)C2)cn2c(C)nc(F)c12)C(C)C` [Example 288-1], the IC50 is 11 nM.
Regarding `CNC(=O)N1CCC(CN2CC(c3cc(-c4ccc(F)cc4C(=O)N4CCOC[C@H]4C)c4cnn(C)c4c3)C2)CC1` [Example 172], the IC50 turned out to be 98 nM.
`CCN(C(=O)c1cc(F)ccc1-c1cc(C2(O)CN(C[C@H]3CC[C@H](NC(=O)OC(C)(C)C)CC3)C2)cc2c1cnn2C)C(C)C` [Example 79, N-[(1r,4r)-4-{[3-(4-{2-[ethyl(isopropyl)aminoformyl]-4-fluorophenyl}-1-methyl-1H-indazol-6-yl)-3-hydroxylazacyclobutan-1-yl]methyl}cyclohexyl]tert-butyl carbamate]: the IC50 was determined as 279 nM.
For the compound `CC(C)N(CC(F)F)C(=O)c1cc(F)ccc1-c1cc([C@@H]2CCN(CCN3CCC(NC(=O)OC(C)(C)C)CC3)C2)cc2c1cnn2C` [Example 166-1, N-(1-{2-[(3S)-3-(4-{2-[(2,2-difluoroethyl)(isopropyl)aminoformyl]-4-fluorophenyl}-1-methyl-1H-indazol-6-yl)pyrrolidin-1-yl]ethyl}piperidin-4-yl)tert-butyl carbamate], the IC50 came to 231 nM.
`CCN(C(=O)c1cc(F)ccc1-c1cc(C2CN([C@H](CCCN3CCN(CCOC)C(=O)C3)C(C)C)C2)cn2c(C)ncc12)C(C)C` [Example 496]: the IC50 turned out to be 3.8 nM.
Regarding `CCN(C(=O)c1cc(F)ccc1-c1cc(C2CN([C@@H](C)C3CCN(C(C)=O)CC3)C2)cn2c(C)nc(F)c12)C(C)C` [Example 288-2], the IC50 stood at 2 nM.
As to `Cc1ncc2c(-c3ccc(F)cc3C(=O)N3CCOC[C@H]3C)cc(C3CN([C@@H](CCCN4CCN(C)CC4)C(C)C)C3)cn12` [Example 323-1, (3R)-4-[5-fluoro-2-(3-methyl-6-{1-[(3S)-2-methyl-6-(4-methylpiperazin-1-yl)hexan-3-yl]azacyclobutan-3-yl}imidazo[1,5-a]pyridin-8-yl)benzoyl]-3-methylmorpholine], the half-maximal inhibitory concentration (IC50) came to 179 nM.
Still for that read-out and setting: then `CCS(=O)(=O)NC1CCC(CN2CC(c3cc(-c4ccc(F)cc4C(=O)N(CC(F)F)C(C)C)c4cnccn34)C2)CC1` (stereo not shown) [Example 143, N-(2,2-difluoroethyl)-2-(6-{1-[(4-ethanesulfonamidocyclohexyl)methyl]azacyclobutan-3-yl}pyrrolo[1,2-a]pyrazin-8-yl)-5-fluoro-N-(isopropyl)benzamide], with 2.7 nM; and `CCN(C(=O)c1cc(F)ccc1-c1cc(C2CN([C@H](CN3CCN(C(C)=O)CC3)C(C)C)C2)cn2c(C)ncc12)C(C)C` [Example 443], with 19.5 nM.
As for `CC(=O)N1CCN(CCC[C@H](C(C)C)N2CC(c3cc(-c4ccc(F)cc4C(=O)N4CCOC[C@H]4C)c4c(F)nc(C)n4c3)C2)CC12CC2` [Example 340], the half-inhibitory concentration (IC50) came out at 33 nM.
In the case of `CCN(C(=O)c1cc(F)ccc1-c1cc(C2CN([C@H](CCCN3CC4(COC4)C3)C(C)C)C2)cn2c(C)ncc12)C(C)C` [Example 388], the IC50 was 2.1 nM.
On the same count and under the same terms, then `CCN(C(=O)c1cc(F)ccc1-c1cc(C2(O)CN([C@@H](CCCN3CCN(CCO)CC3)C(C)C)C2)cn2c(C)ncc12)C(C)C` [Example 464-2, N-ethyl-5-fluoro-2-(6-{3-hydroxyl-1-[(3S)-6-[4-(2-hydroxylethyl)piperazin-1-yl]-2-methylhexan-3-yl]azacyclobutan-3-yl}-3-methylimidazo[1,5-a]pyridin-8-yl)-N-(isopropyl)benzamide], with 190 nM; and `CCN(C(=O)c1cc(F)ccc1-c1cc(N2CCN(CC3CCCCC3)CC2)cn2c(C)ncc12)C(C)C` [Compound 58, 2-{6-[4-(cyclohexylmethyl)piperazin-1-yl]-3-methylimidazo[1,5-a]pyridin-8-yl}-N-ethyl-5-fluoro-N-(isopropyl)benzamide], with 124 nM.
